Patent US20130053381A1, “2,4-DIOXO-1,4-DIHYDRO-2H-QUINAZOLIN-3-YL-SULFONAMIDE DERIVATIVES” (NOVARTIS AG, priority 2010, published 2013)

system: OF1 mice; experiment: Maximal electroshock test (MES Test); format: in vivo; conditions: Mus musculus, po; 50 mg/kg, p.o., pre-treatment time −0.5 h (footnote d); read-out: %-Protection
Protocol: Compounds of the invention were tested in OF1 mice using the maximal electroshock test (MES Test) described in detail by Schmutz et al., Naunyn-Schmiedeberg's Arch Pharmacol 1990, 342, 61-66. Briefly, generalized tonic-clonic convulsions of the hind extremities were induced by passing electrical current through temporal electrodes (50 Hz, 18 mA, 0.2s). […] 30 mg/kg carbamazepine was used as a positive control; mice were classified as protected by a compound If the duration of the seizure lasted only 3 second or less. Five mice were used for each treatment condition and the percentage of protected mice was used as readout (i.e. a compound could give 0%, 20%, 40%, 60%, 80% or 100% protection). Usually, compounds of the invention or their parents were given at a dose of 50 mg/kg, p.o., 1 hour prior to induction of convulsions (i.e. “pre-treatment time −1 h”).
ED50 values (ED: effective dose) were calculated using GraphPad Prism, v4.02. after shock administration, mouse blood was collected for determination of compounds' blood exposure.

Row | SMILES | responders at 50 mg/kg [%]
1 | CC(=O)N(n1c(=O)[nH]c2cc(C(C)C)c(-c3ccnn3C)cc2c1=O)S(C)(=O)=O [Example 3.01, N-Acetyl-N-[7-isopropyl-6-(2-methyl-2H-pyrazol-3-yl)-2,4-dioxo-1,4-dihydro-2H-quinazolin-3-yl]-methanesulfonamide] | 100

same assay, conditions: Mus musculus, po; 50 mg/kg, p.o., pre-treatment time −1 h; read-out: %-Protection

Row | SMILES | responders at 50 mg/kg [%]
2 | CC(C)c1cc2[nH]c(=O)n(N(C(=O)COCc3ccccc3)S(C)(=O)=O)c(=O)c2cc1-c1ccnn1C [Example 3.29, N-(2-Benzyloxy-acetyl)-N-[7-isopropyl-6-(2-methyl-2H-pyrazol-3-yl)-2,4-dioxo-1,4-dihydro-2H-quinazolin-3-yl]-methanesulfonamide] | 100
3 | COC(=O)N(n1c(=O)[nH]c2cc(C(F)(F)F)c(-c3ccnn3C)cc2c1=O)S(C)(=O)=O [Example 1.05, Methanesulfonyl-[6-(2-methyl-2H-pyrazol-3-yl)-2,4-dioxo-7-trifluoromethyl-1,4-dihydro-2H-quinazolin-3-yl]-carbamic acid methyl ester] | 80
4 | CCCCC(=O)N(n1c(=O)[nH]c2cc(C(F)(F)F)c([C@H]3CCCO3)cc2c1=O)S(C)(=O)=O [Example 10.11, N—((R)-2,4-Dioxo-6-tetrahydro-furan-2-yl-7-trifluoromethyl-1,4-dihydro-2H-quinazolin-3-yl)-N-pentanoyl-methanesulfonamide] | 20
5 | CCCCCC(=O)N(n1c(=O)[nH]c2cc(CC)c(-c3ccnn3CC)cc2c1=O)S(C)(=O)=O [Example 13.02, N-[7-Ethyl-6-(2-ethyl-2H-pyrazol-3-yl)-2,4-dioxo-1,4-dihydro-2H-quinazolin-3-yl]-N-hexanoyl-methanesulfonamide] | 20
6 | CCCC(=O)N(n1c(=O)[nH]c2cc(C(F)(F)F)c(-n3ccnc3)cc2c1=O)S(C)(=O)=O [Example 4.09, N-Butyryl-N-(6-imidazol-1-yl-2,4-dioxo-7-trifluoromethyl-1,4-dihydro-2H-quinazolin-3-yl)-methanesulfonamide] | 40
7 | CCCC(=O)N(n1c(=O)c2cc(-c3ccnn3C)c(C(C)C)cc2n(C(=O)CCC)c1=O)S(C)(=O)=O [Example 3.26, N-Butyryl-N-[1-butyryl-7-isopropyl-6-(2-methyl-2H-pyrazol-3-yl)-2,4-dioxo-1,4-dihydro-2H-quinazolin-3-yl]-methanesulfonamide] | 80
8 | COCCOCCOCC(=O)N(n1c(=O)[nH]c2cc(C(C)C)c(-c3ccnn3C)cc2c1=O)S(C)(=O)=O [Example 3.28, N-[7-Isopropyl-6-(2-methyl-2H-pyrazol-3-yl)-2,4-dioxo-1,4-dihydro-2H-quinazolin-3-yl]-N-[2-[2-(2-methoxy-ethoxy)-ethoxy]-acetyl]-methanesulfonamide] | 100
9 | CCCCCC(=O)N(n1c(=O)[nH]c2cc(C(F)(F)F)c(C(CC)OC)cc2c1=O)S(C)(=O)=O (stereo not drawn) [Example 11.05, N-Hexanoyl-N-[6-(1-Methoxy-propyl)-2,4-dioxo-7-trifluoromethyl-1,4-dihydro-2H-quinazolin-3-yl]-methanesulfonamide] | 80
10 | CCC(=O)N(n1c(=O)[nH]c2cc(C(F)(F)F)c(C(CC)OC)cc2c1=O)S(C)(=O)=O (stereo not drawn) [Example 11.02, N-[6-(1-Methoxy-propyl)-2,4-dioxo-7-trifluoromethyl-1,4-dihydro-2H-quinazolin-3-yl]-N-propionyl-methanesulfonamide] | 100
11 | CCC(=O)N(n1c(=O)[nH]c2cc(C(C)C)c(-c3ccnn3C)cc2c1=O)S(C)(=O)=O [Example 3.12, N-[7-Isopropyl-6-(2-methyl-2H-pyrazol-3-yl)-2,4-dioxo-1,4-dihydro-2H-quinazolin-3-yl]-N-propionyl-methanesulfonamide] | 100
12 | CCn1nccc1-c1cc2c(=O)n(NS(C)(=O)=O)c(=O)[nH]c2cc1C(F)F [Example 14.0, N-[7-Difluoromethyl-6-(2-ethyl-2H-pyrazol-3-yl)-2,4-dioxo-1,4-dihydro-2H-quinazolin-3-yl]-methanesulfonamide] | 0
13 | CCn1nccc1-c1cc2c(=O)n(NS(C)(=O)=O)c(=O)[nH]c2cc1C(F)(F)F [Example 15.0, N-[6-(2-Ethyl-2H-pyrazol-3-yl)-2,4-dioxo-7-trifluoromethyl-1,4-dihydro-2H-quinazolin-3-yl]-methanesulfonamide] | 0
14 | CCCC(=O)N(n1c(=O)[nH]c2cc(C(F)(F)F)c(-c3ccnn3C(C)C)cc2c1=O)S(C)(=O)=O [Example 5.03, N-Butyryl-N-[6-(2-isopropyl-2H-pyrazol-3-yl)-2,4-dioxo-7-trifluoromethyl-1,4-dihydro-2H-quinazolin-3-yl]-methanesulfonamide] | 40
15 | CCCCOC(=O)N(n1c(=O)c2cc(-c3ccnn3C)c(C(C)C)cc2n(C(=O)OCCCC)c1=O)S(C)(=O)=O [Example 3.35, 3-(Butoxycarbonyl-methanesulfonyl-amino)-7-isopropyl-6-(2-methyl-2H-pyrazol-3-yl)-2,4-dioxo-3,4-dihydro-2H-quinazoline-1-carboxylic acid butyl ester] | 80
16 | CCCCCCOC(=O)N(n1c(=O)[nH]c2cc(C(C)C)c(-c3ccnn3C)cc2c1=O)S(C)(=O)=O [Example 3.22, [7-Isopropyl-6-(2-methyl-2H-pyrazol-3-yl)-2,4-dioxo-1,4-dihydro-2H-quinazolin-3-yl]-methanesulfonyl-carbamic acid hexyl ester] | 100

same assay, conditions: Mus musculus, po; 50 mg/kg, p.o., pre-treatment time −2 h (footnote a); read-out: %-Protection

Row | SMILES | responders at 50 mg/kg [%]
17 | CCC(=O)N(n1c(=O)[nH]c2cc(C(F)(F)F)c(-n3ccnc3)cc2c1=O)S(C)(=O)=O [Example 4.04, N-(6-Imidazol-1-yl-2,4-dioxo-7-trifluoromethyl-1,4-dihydro-2H-quinazolin-3-yl)-N-propionyl-methanesulfonamide] | 40

same assay, conditions: Mus musculus, po; Dose: 15 mg/kg, p.o. (footnote c), pre-treatment time −1 h; read-out: %-Protection

Row | SMILES | responders at 15 mg/kg [%]
18 | CCOC(=O)CCC(=O)N(n1c(=O)[nH]c2cc(C(C)C)c(-c3ccnn3C)cc2c1=O)S(C)(=O)=O [Example 3.06, 4-{[7-Isopropyl-6-(2-methyl-2H-pyrazol-3-yl)-2,4-dioxo-1,4-dihydro-2H-quinazolin-3-yl]-methanesulfonyl-amino}-4-oxo-butyric acid ethyl ester] | 100
19 | CC(=O)OC(C)(C)C(=O)N(n1c(=O)[nH]c2cc(C(C)C)c(-c3ccnn3C)cc2c1=O)S(C)(=O)=O [Example 3.10, Acetic acid 2-{[7-isopropyl-6-(2-methyl-2H-pyrazol-3-yl)-2,4-dioxo-1,4-dihydro-2H-quinazolin-3-yl]-methanesulfonyl-amino}-1,1-dimethyl-2-oxo-ethyl ester] | 40

same assay, conditions: Mus musculus, po; Table 5; 50 mg/kg, p.o., pre-treatment time −0.25 h; read-out: %-Protection

Row | SMILES | responders at 50 mg/kg [%]
20 | CC(=O)N(n1c(=O)[nH]c2cc(C(C)C)c(-c3ccnn3C)cc2c1=O)S(C)(=O)=O [Example 3.01, N-Acetyl-N-[7-isopropyl-6-(2-methyl-2H-pyrazol-3-yl)-2,4-dioxo-1,4-dihydro-2H-quinazolin-3-yl]-methanesulfonamide] | 40

same assay, conditions: Mus musculus, po; Table 5; 50 mg/kg, p.o., pre-treatment time −1 h; read-out: %-Protection

Row | SMILES | responders at 50 mg/kg [%]
21 | CC(=O)N(n1c(=O)[nH]c2cc(C(C)C)c(-c3ccnn3C)cc2c1=O)S(C)(=O)=O [Example 3.01, N-Acetyl-N-[7-isopropyl-6-(2-methyl-2H-pyrazol-3-yl)-2,4-dioxo-1,4-dihydro-2H-quinazolin-3-yl]-methanesulfonamide] | 100

same assay, conditions: Mus musculus, sc; Dose: 25 mg/kg, s.c., pre-treatment time −4 h (footnote f); read-out: %-Protection

Row | SMILES | responders at 25 mg/kg [%]
22 | CCCCCCCCCC(=O)N(n1c(=O)[nH]c2cc(C(C)C)c(-c3ccnn3C)cc2c1=O)S(C)(=O)=O [Example 3.15, N-Decanoyl-N-[7-isopropyl-6-(2-methyl-2H-pyrazol-3-yl)-2,4-dioxo-1,4-dihydro-2H-quinazolin-3-yl]-methanesulfonamide] | 20

same assay, conditions: Mus musculus; dose of up to 50 mg/kg, p.o., 1 hour prior to induction of convulsions; read-out: %-Protection

Row | SMILES | responders at 50 mg/kg [%]
23 | CCCCCCCCCC(=O)N(n1c(=O)[nH]c2cc(C(C)C)c(-c3ccnn3C)cc2c1=O)S(C)(=O)=O [Example 3.15, N-Decanoyl-N-[7-isopropyl-6-(2-methyl-2H-pyrazol-3-yl)-2,4-dioxo-1,4-dihydro-2H-quinazolin-3-yl]-methanesulfonamide] | 0
24 | CC(=O)OCC(=O)N(n1c(=O)[nH]c2cc(C(F)(F)F)c(-c3ccnn3C(C)C)cc2c1=O)S(C)(=O)=O [Acetic acid 2-{[6-(2-isopropyl-2H-pyrazol-3-yl)-2,4-dioxo-7-trifluoromethyl-1,4-dihydro-2H-quinazolin-3-yl]-methanesulfonyl-amino}-2-oxo-ethyl ester] | 0
25 | CCCCC(=O)N(n1c(=O)[nH]c2cc(C(F)(F)F)c(-c3ccnn3C(C)C)cc2c1=O)S(C)(=O)=O [N-[6-(2-Isopropyl-2H-pyrazol-3-yl)-2,4-dioxo-7-trifluoromethyl-1,4-dihydro-2H-quinazolin-3-yl]-N-pentanoyl-methanesulfonamide] | 0
26 | CCOC(=O)N(n1c(=O)[nH]c2cc(CC)c(-c3ccnn3CC)cc2c1=O)S(C)(=O)=O [Methanesulfonyl-[7-ethyl-6-(2-ethyl-2H-pyrazol-3-yl)-2,4-dioxo-1,4-dihydro-2H-quinazolin-3-yl]carbamic acid ethyl ester] | 0
27 | CCC(=O)N(n1c(=O)[nH]c2cc(C(F)F)c(-c3ccnn3CC)cc2c1=O)S(C)(=O)=O [N-[7-Difluoromethyl-6-(2-ethyl-2H-pyrazol-3-yl)-2,4-dioxo-1,4-dihydro-2H-quinazolin-3-yl]-N-propionyl-methanesulfonamide] | 0
28 | CCn1nccc1-c1cc2c(=O)n(N(C(C)=O)S(C)(=O)=O)c(=O)[nH]c2cc1C(F)F [N-Acetyl-N-[7-difluoromethyl-6-(2-ethyl-2H-pyrazol-3-yl)-2,4-dioxo-1,4-dihydro-2H-quinazolin-3-yl]-methanesulfonamide] | 0
29 | COC(=O)N(n1c(=O)[nH]c2cc(C(F)(F)F)c(-c3ccnn3C(C)C)cc2c1=O)S(C)(=O)=O [[6-(2-Isopropyl-2H-pyrazol-3-yl)-2,4-dioxo-7-trifluoromethyl-1,4-dihydro-2H-quinazolin-3-yl]-methanesulfonyl-carbamic acid methyl ester] | 0

same assay, conditions: Table 5; 50 mg/kg, p.o., pre-treatment time −0.5 h

Row | SMILES | %-Protection [%]
30 | CC(=O)N(n1c(=O)[nH]c2cc(C(C)C)c(-c3ccnn3C)cc2c1=O)S(C)(=O)=O [Example 3.01, N-Acetyl-N-[7-isopropyl-6-(2-methyl-2H-pyrazol-3-yl)-2,4-dioxo-1,4-dihydro-2H-quinazolin-3-yl]-methanesulfonamide] | 100
